Measured values taken from BigSolDB 2.1.

NC12CC3CC(C1)CC(O)(C3)C2
solubility (mole fraction) (in THF, 278.15 K): 0.0201 | solubility (mole fraction) (in THF, 283.15 K): 0.0213 | solubility (mole fraction) (in THF, 288.15 K): 0.0229 | solubility (mole fraction) (in THF, 293.15 K): 0.0247 | solubility (mole fraction) (in THF, 298.15 K): 0.0269 | solubility (mole fraction) (in THF, 303.15 K): 0.0294 | solubility (mole fraction) (in THF, 308.15 K): 0.0323 | solubility (mole fraction) (in THF, 313.15 K): 0.0356 | solubility (mole fraction) (in THF, 318.15 K): 0.0394 | solubility (mole fraction) (in THF, 323.15 K): 0.0439 | solubility (mole fraction) (in THF, 328.15 K): 0.049 | solubility (mole fraction) (in ethanol, 278.15 K): 0.0608 | solubility (mole fraction) (in ethanol, 283.15 K): 0.0768 | solubility (mole fraction) (in ethanol, 288.15 K): 0.0974 | solubility (mole fraction) (in ethanol, 293.15 K): 0.123 | solubility (mole fraction) (in ethanol, 298.15 K): 0.151 | solubility (mole fraction) (in ethanol, 303.15 K): 0.183 | solubility (mole fraction) (in ethanol, 308.15 K): 0.219 | solubility (mole fraction) (in ethanol, 313.15 K): 0.256 | solubility (mole fraction) (in ethanol, 318.15 K): 0.296 | solubility (mole fraction) (in ethanol, 323.15 K): 0.337 | solubility (mole fraction) (in ethanol, 328.15 K): 0.389 | solubility (mole fraction) (in methanol, 278.15 K): 0.0136 | solubility (mole fraction) (in methanol, 283.15 K): 0.0176 | solubility (mole fraction) (in methanol, 288.15 K): 0.0209 | solubility (mole fraction) (in methanol, 293.15 K): 0.0253 | solubility (mole fraction) (in methanol, 298.15 K): 0.0297 | solubility (mole fraction) (in methanol, 303.15 K): 0.0352 | solubility (mole fraction) (in methanol, 308.15 K): 0.0422 | solubility (mole fraction) (in methanol, 313.15 K): 0.0509 | solubility (mole fraction) (in methanol, 318.15 K): 0.0618 | solubility (mole fraction) (in methanol, 323.15 K): 0.0754 | solubility (mole fraction) (in methanol, 328.15 K): 0.0926 | solubility (mole fraction) (in n-butanol, 278.15 K): 0.0626 | solubility (mole fraction) (in n-butanol, 283.15 K): 0.0657 | solubility (mole fraction) (in n-butanol, 288.15 K): 0.0679 | solubility (mole fraction) (in n-butanol, 293.15 K): 0.0704 | solubility (mole fraction) (in n-butanol, 298.15 K): 0.0736 | solubility (mole fraction) (in n-butanol, 303.15 K): 0.0761 | solubility (mole fraction) (in n-butanol, 308.15 K): 0.0799 | solubility (mole fraction) (in n-butanol, 313.15 K): 0.0827 | solubility (mole fraction) (in n-butanol, 318.15 K): 0.0868 | solubility (mole fraction) (in n-butanol, 323.15 K): 0.0904 | solubility (mole fraction) (in n-butanol, 328.15 K): 0.0943 | solubility (mole fraction) (in n-propanol, 278.15 K): 0.133 | solubility (mole fraction) (in n-propanol, 283.15 K): 0.145 | solubility (mole fraction) (in n-propanol, 288.15 K): 0.157 | solubility (mole fraction) (in n-propanol, 293.15 K): 0.171 | solubility (mole fraction) (in n-propanol, 298.15 K): 0.185 | solubility (mole fraction) (in n-propanol, 303.15 K): 0.2 | solubility (mole fraction) (in n-propanol, 308.15 K): 0.216 | solubility (mole fraction) (in n-propanol, 313.15 K): 0.234 | solubility (mole fraction) (in n-propanol, 318.15 K): 0.252 | solubility (mole fraction) (in n-propanol, 323.15 K): 0.272 | solubility (mole fraction) (in n-propanol, 328.15 K): 0.293 | solubility (mole fraction) (in water, 278.15 K): 0.0125 | solubility (mole fraction) (in water, 283.15 K): 0.0146 | solubility (mole fraction) (in water, 288.15 K): 0.0173 | solubility (mole fraction) (in water, 293.15 K): 0.0207 | solubility (mole fraction) (in water, 298.15 K): 0.0233 | solubility (mole fraction) (in water, 303.15 K): 0.0266 | solubility (mole fraction) (in water, 308.15 K): 0.0306 | solubility (mole fraction) (in water, 313.15 K): 0.0354 | solubility (mole fraction) (in water, 318.15 K): 0.0413 | solubility (mole fraction) (in water, 323.15 K): 0.0486 | solubility (mole fraction) (in water, 328.15 K): 0.0575
